Results as given in PubChem BioAssay (NCI).
Several values for one entry are separate records, joined by “and”; a condition that tells them apart may be missing. Equal entries are not always repeated.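 1) Cells in 96-well plates. 2) Compound, 48 h, 5 concentrations. 3) Linear interpolation between surrounding doses. 4) Unreached endpoint = highest concentration. GI50 = concentration required for 50% inhibition of growth. The concentration for full growth arrest is given as TGI.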

Columns and labels:
Test in all cases: growth of human tumour cells (NCI), 48 h
HS 578T breast = system: HS 578T breast
T-47D breast = system: T-47D breast
PC-3 prostate = system: PC-3 prostate
MDA-MB-435 = system: MDA-MB-435
MDA-MB-231 breast = system: MDA-MB-231 breast
DU-145 prostate = system: DU-145 prostate
KM20L2 colon = system: KM20L2 colon
XF 498 CNS = system: XF 498 CNS
M19-MEL melanoma = system: M19-MEL melanoma
DMS 273 small cell lung = system: DMS 273 small cell lung

| SMILES | GI50 (HS 578T breast) [µM] | TGI (HS 578T breast) [µM] | GI50 (T-47D breast) [µM] | TGI (T-47D breast) [µM] | GI50 (PC-3 prostate) [µM] | TGI (PC-3 prostate) [µM] | GI50 (MDA-MB-435) [µM] | TGI (MDA-MB-435) [µM] | GI50 (MDA-MB-231 breast) [µM] | TGI (MDA-MB-231 breast) [µM] | GI50 (DU-145 prostate) [µM] | TGI (DU-145 prostate) [µM] | GI50 (KM20L2 colon) | TGI (KM20L2 colon) [µM] | GI50 (XF 498 CNS) | TGI (XF 498 CNS) [µM] | TGI (M19-MEL melanoma) [µM] | TGI (DMS 273 small cell lung) [µM] |
| --- | --- | --- | --- | --- | --- | --- | --- | --- | --- | --- | --- | --- | --- | --- | --- | --- | --- | --- |
| COc1ccc(-n2c(SCc3cc(OC)c(OC)c(OC)c3)nc3ccc(C)cc3c2=O)c(OC)c1 | 3.31 | > 100 | 6.39 | > 100 | 3.63 | > 100 | 1.05 | 3.07 | 4.15 | > 100 | 3.72 | > 100 | – | – | – | – | – | – |
| CC12CCC3C(CC=C4CC(O)CCC43C)C1C/C(=C\N1CCCC1)C2=O (stereo unspecified) | 60.8 | > 100 | 30.2 | > 100 | 55 | > 100 | > 100 | > 100 | 40.8 | > 100 | > 100 | > 100 | – | – | – | – | – | – |
| O=C(O)c1cc2ccccc2c(O)c1O | – | 45.4 | – | 57.7 | – | 37 | – | 3.33 | – | 32.7 | – | 32.3 | – | – | – | – | – | – |
| COCCn1cc(-c2csc(-c3c[nH]c4ccccc34)n2)c2cccnc21 | 9.14 | > 100 | 0.418 | > 100 | 6.81 | > 100 | 0.863 | 5.25 | 5.05 | > 100 | 15.4 | > 100 | – | – | – | – | – | – |
| CC1OC(n2ncc(=O)[nH]c2=O)C=CC1=O (stereo unspecified) | – | – | – | – | – | – | – | – | – | – | – | – | > 100 µM and 40.7 µM | > 100 | 54.8 µM and 22.9 µM | > 100 | > 100 | – |
| O=c1cccc(C#CC#C[C@H]2O[C@@H]2CO)o1 | 2.91 | 9.69 | 0.401 | 1.47 | 0.664 | 2.01 | 0.474 | 1.21 | 0.419 | 1.02 | 1.56 | 3.24 | – | – | – | – | – | – |
| CCCC1c2c(ccc3ccccc23)Oc2ccc3ccccc3c21 | – | > 100 | – | > 100 | – | > 100 | – | > 100 | – | > 100 | – | > 100 | – | – | – | – | – | – |
| CC(C)C(=O)/C=C/c1ccccc1 | – | – | – | – | – | – | – | – | – | – | – | – | – | > 100 | – | > 100 | > 100 | > 100 |
| N[C@@H](Cc1c[nH]c2ccccc12)C(=O)NC1CCN(C(=O)c2c[nH]c3ccccc23)CC1 | 71.3 | > 100 | 74.5 | > 100 | > 100 | > 100 | > 100 | > 100 | 75.4 | > 100 | 72.2 | > 100 | – | – | – | – | – | – |
| OC1(C(O)(c2ccc(-c3ccccc3)cc2)c2ccc(-c3ccccc3)cc2)CCCCC1 | – | > 100 | – | > 100 | – | > 100 | – | > 100 | – | > 100 | – | > 100 | – | – | – | – | – | – |
| CSc1nc2c(c(=O)[nH]1)N=C1c3ccccc3C(=O)C1C(c1ccc(F)cc1)N2 (stereo unspecified) | 5.85 | 43.6 | 14.2 | 94.6 | 7.72 | 95.2 | 1.65 | 8.76 | 12.6 | > 100 | 16.2 | 42.2 | – | – | – | – | – | – |
| N#Cc1c(C(=O)c2ccccc2)cnn1-c1ccccc1 | > 25 | > 25 | > 25 | > 25 | > 25 | > 25 | > 25 | > 25 | > 25 | > 25 | > 25 | > 25 | – | – | – | – | – | – |
| O=C(/C=C/c1ccc(OCC(=O)N2CCN(c3ccccc3)CC2)cc1)c1ccc(Cl)cc1 | – | 62.3 | – | > 100 | – | > 100 | – | > 100 | – | > 86.3 | – | > 100 | – | > 100 | – | – | > 100 | > 100 |
| C/C(=N/S(=O)(=O)c1ccc(Cl)c(Cl)c1)OCC(C)(C)C | – | > 100 | – | > 100 | – | > 100 | – | > 100 | – | > 100 | – | > 100 | – | – | – | – | – | – |
